Measured values: ChEMBL document CHEMBL5380862, “Unsymmetrical Phosphodiesters as GPR84 Antagonists with High Blood Exposure for the Treatment of Lung Inflammation” (J Med Chem, 2023)
Calls of active or inactive are those of the source. The rule behind the calls is not given here.

How the values were obtained:
[1] = Drug distribution in mouse brain at 5 mg/kg, po administered as single dose and measured after 0.5 hrs by LC-MS analysis; format: ADME, organism-based; conditions: read-out: Drug uptake
[2] = biological target: Kappa-type opioid receptor (Homo sapiens) (UniProt P41145); experiment: Antagonist activity at KOR (unknown origin) expressed in HEK293 cells co-expressing Galpha16 assessed as inhibition of U50488 induced calcium response upto 100 uM incubated for 10 mins by calcium mobilization assay; format: functional, cell-based
[3] = biological target: Free fatty acid receptor 1 (Homo sapiens) (UniProt O14842); experiment: Antagonist activity at GPR40 (unknown origin) expressed in HEK293 cells co-expressing Galpha16 assessed as inhibition of TAK-875 induced calcium response upto 100 uM incubated for 10 mins by calcium mobilization assay; format: functional, cell-based
[4] = AUClast in ICR mouse at 2 mg/kg, iv administered as single dose; format: ADME, organism-based; set-up: dose 2 mg/kg, route iv; conditions: in vivo
[5] = biological target: T1, Glucose-dependent insulinotropic receptor (Homo sapiens) (UniProt Q8TDV5); experiment: Antagonist activity at GPR119 (unknown origin) expressed in HEK293 cells assessed as inhibition of AR231453 induced […] upto 100 uM pre-incubated for 10 mins followed by AR231453 addition and measured after 15 mins by cAMP detection assay; format: functional, cell-based; conditions: time 25.0 min
T1 sequence (whole entry): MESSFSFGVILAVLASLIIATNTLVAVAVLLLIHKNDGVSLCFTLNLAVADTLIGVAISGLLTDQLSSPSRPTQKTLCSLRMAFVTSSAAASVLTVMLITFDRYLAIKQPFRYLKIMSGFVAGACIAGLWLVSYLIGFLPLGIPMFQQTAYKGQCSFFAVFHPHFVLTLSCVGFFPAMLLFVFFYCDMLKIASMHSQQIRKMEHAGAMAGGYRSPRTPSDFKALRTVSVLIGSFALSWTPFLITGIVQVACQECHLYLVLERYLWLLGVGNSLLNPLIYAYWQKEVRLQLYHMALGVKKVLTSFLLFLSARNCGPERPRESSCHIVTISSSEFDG

Monocyte = experiment: Inhibition of cell migration in 3-hydroxydodecanoic acid-stimulated mouse CD11bpositive Ly6Cpositive monocytes at 0.01 to 1 uM incubated for 1.5 hrs by flow cytometric analysis; format: functional, cell-based; conditions: dose 0.01-1 µM
[6] = biological target: Delta-type opioid receptor (Homo sapiens) (UniProt P41143); experiment: Antagonist activity at DOR (unknown origin) expressed in CHO-K1 cells co-expressing Galpha16 assessed as inhibition of DPDPE induced calcium response upto 100 uM incubated for 10 mins by calcium mobilization assay; format: functional, cell-based
[7] = Drug distribution in mouse lung at 5 mg/kg, po administered as single dose and measured after 8 hrs by LC-MS analysis; format: ADME, organism-based; conditions: read-out: Drug uptake
[8] = Drug distribution in mouse brain at 5 mg/kg, po administered as single dose and measured after 2 hrs by LC-MS analysis; format: ADME, organism-based; conditions: read-out: Drug uptake

Chain of Kappa-type opioid receptor (Homo sapiens) (P41145 whole entry): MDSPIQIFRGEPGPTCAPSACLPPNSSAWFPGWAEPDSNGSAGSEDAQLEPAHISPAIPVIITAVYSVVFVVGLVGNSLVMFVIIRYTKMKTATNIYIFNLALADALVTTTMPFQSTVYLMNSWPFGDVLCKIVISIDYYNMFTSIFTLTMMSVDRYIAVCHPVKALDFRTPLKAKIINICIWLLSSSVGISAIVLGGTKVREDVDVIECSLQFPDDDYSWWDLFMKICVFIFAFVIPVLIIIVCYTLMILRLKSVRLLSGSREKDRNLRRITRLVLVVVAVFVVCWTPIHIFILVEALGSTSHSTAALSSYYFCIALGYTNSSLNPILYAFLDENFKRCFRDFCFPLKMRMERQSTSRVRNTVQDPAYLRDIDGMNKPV
Chain of Delta-type opioid receptor (Homo sapiens) (P41143 whole entry): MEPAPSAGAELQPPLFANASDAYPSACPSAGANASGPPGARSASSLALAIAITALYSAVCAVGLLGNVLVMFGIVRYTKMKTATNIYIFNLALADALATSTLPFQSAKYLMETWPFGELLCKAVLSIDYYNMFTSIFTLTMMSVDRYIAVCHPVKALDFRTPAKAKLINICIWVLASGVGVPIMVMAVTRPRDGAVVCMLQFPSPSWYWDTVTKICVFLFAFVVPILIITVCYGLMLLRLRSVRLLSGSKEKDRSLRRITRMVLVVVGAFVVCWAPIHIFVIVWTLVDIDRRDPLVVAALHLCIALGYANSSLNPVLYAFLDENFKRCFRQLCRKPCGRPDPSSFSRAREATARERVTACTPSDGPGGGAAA
Chain of Free fatty acid receptor 1 (Homo sapiens) (O14842 whole entry): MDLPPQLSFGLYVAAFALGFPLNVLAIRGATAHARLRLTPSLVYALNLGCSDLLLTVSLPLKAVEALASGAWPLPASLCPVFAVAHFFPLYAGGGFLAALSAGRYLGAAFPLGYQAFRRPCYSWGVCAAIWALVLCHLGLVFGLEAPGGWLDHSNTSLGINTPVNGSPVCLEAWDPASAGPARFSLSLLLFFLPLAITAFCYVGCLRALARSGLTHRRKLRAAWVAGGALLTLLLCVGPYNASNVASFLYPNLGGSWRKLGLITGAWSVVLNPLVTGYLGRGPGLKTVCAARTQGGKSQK

O=P([O-])(OC1=Cc2c(Cl)cccc2Sc2ccccc21)OC1=Cc2c(Cl)cccc2Sc2ccccc21.[Na+]
concentration at 0.5 h [1]: 6.8 ng/g | inhibition [2]: inactive | inhibition [3]: inactive | AUC(0-t) [4]: 1680 ng·h/mL | inhibition [5]: inactive | inhibition (Monocyte): Active | inhibition [6]: inactive | concentration at 8 h [7]: 26.1 ng/g | concentration at 2 h [8]: 6.3 ng/g
